According to US20090143279A1 (priority 2007, published 2009):
Values joined by “and” are separate entries in the source; they are usually repeats but may differ in a detail not shown here. Equal values may be shown once. Read-outs that look alike come from different tables or passages of the source.

Experiments:
[1] = tested on: mitochondrial membrane potential; assay type: cell-based, mouse
reactive oxygen species = assay type: cell-based, mouse
[2] = tested on: cellular dehydrogenase activity
cytochrome c = assay type: cell-based, mouse
Sequence of cytochrome c (P62897 whole entry): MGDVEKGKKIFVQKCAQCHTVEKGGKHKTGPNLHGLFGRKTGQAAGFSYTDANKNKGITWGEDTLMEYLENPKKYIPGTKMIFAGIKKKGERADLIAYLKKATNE

[3] = Table 4, C2C12 myotubes, 48 h, JC-1, composite Z-score
[4] = Table 4, C2C12 myotubes, 48 h, composite Z-score
[5] = composite Z-score vs mock-treated (DMSO) wells, Conc 20 μM
[6] = composite Z-score vs DMSO, Conc 20 μM

Compound	ΔΨm [1]	ROS (reactive oxygen species)	cyt c (cytochrome c)	Viability (C2C12 myotubes)	MTT [2]	further results
COc1cc2c(cc1OC)[C@@H]1C(=O)c3ccc4c(c3O[C@@H]1CO2)C=CC(C)(C)O4 [deguelin(−), reference compound]	–	–	–	–	–	ΔΨm [1, 3]: 1.451; ROS (reactive oxygen species; [4]): 0.426; Viability (C2C12 myotubes; [4]): −0.940; MTT [2, 4]: −4.052
C=C(C)CCCC(C)CCOC(C)=O (stereo not drawn) [rhodinyl acetate]	−0.631	−0.024	0.137	−0.197	−0.833	–
C=C(C)/C=C1/C=CC(=O)C(C)=C1 [retusoquinone]	–	–	–	–	–	ΔΨm [1, 5]: −3.628; ROS (reactive oxygen species; [5]): −3.565; cyt c (cytochrome c; [5]): −5.303; Viability (C2C12 myotubes; [5]): −5.371; MTT [2, 5]: −6.075
COC(=O)Nc1nc2ccc(SC(C)C)cc2[nH]1 [methiazole, reference compound]	–	–	–	–	–	ΔΨm [1, 3]: 0.040; ROS (reactive oxygen species; [4]): −2.515; Viability (C2C12 myotubes; [4]): −0.683; MTT [2, 4]: −0.654
CC [methylmethane]	−0.924	0.909	0.221	−1.159	−1.330	–
O=C(O)CCCOc1ccc(Cl)cc1Cl [2,4-dichlorophenoxybutyric acid]	−0.479	0.758	0.711	0.337	−1.368	–
COC(=O)[C@]1(C)CC[C@]2(C)CC[C@]3(C)C4=CC=C5C(=CC(=O)C(O)=C5C)[C@]4(C)CC[C@@]3(C)[C@@H]2C1 [pristimerin]	–	–	–	–	–	ΔΨm [1, 6]: −3.651; ROS (reactive oxygen species; [6]): −3.693; cyt c (cytochrome c; [6]): −5.896; Viability (C2C12 myotubes; [6]): −5.473; MTT [2, 6]: −6.164
CC(C)=CCCC1(C)C=Cc2c(O)c3c(c(CC=C(C)C)c2O1)OC12C(=CC4CC1C(C)(C)OC2(C/C=C(/C)C(=O)O)C4O)C3=O (stereo not drawn) [dihydrogambogic acid]	–	–	–	–	–	ΔΨm [1, 5]: −3.431; ROS (reactive oxygen species; [5]): −2.239; cyt c (cytochrome c; [5]): −5.191; Viability (C2C12 myotubes; [5]): −5.468; MTT [2, 5]: −6.208
CC(=O)N(CC(O)CO)c1c(I)c(C(=O)NCC(O)CO)c(I)c(C(=O)NCC(O)CO)c1I (stereo not drawn) [iohexol]	−0.970	0.568	0.080	−0.374	−1.085	–
COc1ccc2cc([C@@H](C)C(=O)[O-])ccc2c1.[Na+] [(R)-naproxen sodium salt]	−0.253	−0.736	0.444	0.632	0.325	–
OCCN(CCO)c1nc(N2CCCCC2)c2nc(N(CCO)CCO)nc(N3CCCCC3)c2n1 [dipyridamole]	0.298 and 0.474	–	0.377 and 0.276	2.069 and 1.042	–	–
CC(=O)[O-].CC(=O)[O-].[Cd+2] [cadmium acetate]	−1.276	−1.066	−2.166	−1.393	−1.896	–
Clc1ccccc1C(c1ccccc1)(c1ccccc1)n1ccnc1 [clotrimazole]	–	2.521	–	0.099	–	–
C[C@@H]1[C@H](O)[C@@H](C)/C=C/C=C/C=C/C=C/C=C/C=C/C=C/[C@H](O[C@@H]2O[C@H](C)[C@@H](O)[C@H](N)[C@@H]2O)C[C@@H]2O[C@](O)(C[C@@H](O)C[C@@H](O)[C@H](O)CC[C@@H](O)C[C@@H](O)CC(=O)O[C@H]1C)C[C@H](O)[C@H]2C(=O)O [amphotericin B]	0.308	0.005	−0.982	1.210	−0.790	–
COC1=CC(=O)C(O)=C/C1=C\C=C\c1ccccc1 [obtusaquinone]	–	–	–	–	–	ΔΨm [1, 6]: −3.829; ROS (reactive oxygen species; [6]): −1.119; cyt c (cytochrome c; [6]): −5.381; Viability (C2C12 myotubes; [6]): −4.658; MTT [2, 6]: −6.409
CC(=O)O[C@H]1CC[C@@]2(C)C(=CC[C@@H]3[C@@H]2CC[C@]2(C)C(=O)CC[C@@H]32)C1 [praesterone acetate]	1.329	0.054	−0.521	1.018	1.084	–

Compound	ΔΨm [1]	ROS (reactive oxygen species)	cyt c (cytochrome c)	Viability (C2C12 myotubes)	MTT [2]	further results
L-methionine sulfoximine	−0.703	0.762	−0.412	−0.928	−1.902	–
Cc1c(N(C)C)c(=O)n(-c2ccccc2)n1C [amidopyrine]	−0.496	−0.776	0.748	0.691	−0.051	–
CC1=C(O)C(=O)C=C2C1=CC=C1[C@@]2(C)CC[C@@]2(C)[C@@H]3C[C@](C)(C(=O)O)CC[C@]3(C)CC[C@]12C [celastrol]	–	–	–	–	–	ΔΨm [1, 6]: −3.520; ROS (reactive oxygen species; [6]): −2.732; cyt c (cytochrome c; [6]): −5.979; Viability (C2C12 myotubes; [6]): −4.797; MTT [2, 6]: −6.584
Cc1cc(C2CCCCC2)n(O)c(=O)c1.NCCO [ciclopirox ethanolamine]	2.994	−1.968	−0.351	0.101	−2.239	–
CC(C)NC[C@@H](O)COc1ccc(CC(N)=O)cc1 [(R)-(+)-atenolol]	−0.573	1.639	−0.033	−0.846	−1.053	–
Oc1ccc([C@H]2Oc3cc(O)cc(O)c3C[C@H]2O)cc1 [epiafzelechin(2r,3r)(−), reference compound]	–	–	–	–	–	ΔΨm [1, 3]: −3.118; ROS (reactive oxygen species; [4]): 1.019; Viability (C2C12 myotubes; [4]): −0.719; MTT [2, 4]: −0.486
pyrantel tartrate	−1.028	1.579	−0.306	0.330	−1.214	–
N[C@@H](C(=O)N[C@@H]1C(=O)N2C(C(=O)O)=C(Cl)CC[C@H]12)c1ccccc1 [loracarbef]	−0.229	−0.236	0.622	0.317	−0.158	–
trisodium ethylenediamine tetracetate	0.474	−0.436	–	−0.946	−1.123	–
C[C@@H](N)[C@@H](O)c1ccccc1 [1S,2R-phenylpropanolamine]	−0.137	0.721	–	0.296	−1.507	cyt c (cytochrome c; [6]): 0.280
COc1ccc2c(c1)CC[C@@H]1[C@@H]2CC[C@]2(C)[C@@H](O)[C@H](O)C[C@@H]12 [estriol methyl ether]	−0.046	0.299	–	0.054	−1.611	cyt c (cytochrome c; [6]): 0.241
C[C@@H]1CC[C@@]23CCC4(C)[C@@](C=CC5[C@@]6(C)CC[C@H](O)C(C)(C)C6CC[C@]54C)(OC2=O)C3[C@H]1C (stereo partly drawn) [dehydro (11,12)ursolic acid lactone]	−0.429	0.385	–	−0.003	0.402	cyt c (cytochrome c; normalized composite Z-score vs mock-treated (DMSO) wells, Conc 20 μM): −0.175
O=C1C(O)=C(O)C(=O)C(O)=C1O [tetrahydroxy-1,4-quinone]	−0.511	0.667	−0.785	−1.006	−1.965	–
methyl benzethonium chloride	0.480	−1.501	–	−2.690	−4.304	–
(S)-(−)-atenolol	0.396	−0.554	0.030	0.012	−0.552	–
CC1(C)C(=O)C=C[C@@]2(C)C1=C(O)C(=O)[C@]1(C)[C@@H]2CC[C@@]2(C)[C@H](c3ccoc3)C[C@H]3O[C@]321 [cedrelone]	–	–	–	–	–	ΔΨm [1, 5]: −3.459; ROS (reactive oxygen species; [5]): −3.982; cyt c (cytochrome c; [5]): −5.998; Viability (C2C12 myotubes; [5]): −4.680; MTT [2, 5]: −6.617
